The source of these data is patent publication US7462605B2, “Phosphoramidate compounds and methods of use” (Celmed Oncology (USA), Inc., priority 2002, dated 2008).

As usually defined, the pIC50 is −log10 of the IC50, conventionally taken in molar units.

In assay [1] the test system is H527 (Skin) normal cells. The experiment in a line: alamarBlue growth inhibition, H527. It is filed as cell-based, human. The conditions noted are these: 120 hours. How it is done:
(§1) Growth Inhibition Studies. Cells growing exponentially were transferred to 384-well flat bottom tissue culture plates. All cell types were plated at a density of 500 cells per well in 25 μL of complete medium (RPMI 1640+10% fetal bovine serum+antibiotics/antimycotics). After 24 hours (day 0), 25 μL of complete medium containing the experimental compounds over the dose range of 10^ñ3 to 10^ñ10 M were added in triplicate. […] 5 μL of the redox indicator, alamarBlue, was added to each well (10% v/v). After 4 hours incubation at 37° C., fluorescence was monitored at 535 nm excitation and 595 nm emission.
(§2) Concentration vs. relative fluorescence units (RFU) were plotted, and sigmoid curves were fit using the Hill equation.
A general note: Alamar Blue is a resazurin reagent that responds to reducing activity.

Assay [2] relates to HT1080 (Colon) tumor cells. The experiment in a line: alamarBlue growth inhibition, HT1080. Type of assay: cell-based, human. The settings on record: 120 hours. The method, then:
as §1, §2

The test system of assay [3] is COLO205 (Colon) tumor cells. In words: alamarBlue growth inhibition, COLO205. The conditions noted are these: 120 hours. It is filed as cell-based, human. The method, then: as §1, §2
The subject of assay [4] is HCTC (Colon) tumor cells. The experiment in a line: alamarBlue growth inhibition, HCTC. It is filed as cell-based, human. The conditions noted are these: 120 hours. How it is done: as §1, §2
Assay [5] deals with MDAMB361 (Breast) tumor cells. In words: alamarBlue growth inhibition, MDAMB361. Type of assay: cell-based, human. The conditions noted are these: 120 hours. The method, then:
as §1, §2

For assay [6], the system named is MDAMB468 (Breast) tumor cells. The experiment in a line: alamarBlue growth inhibition, MDAMB468. Type of assay: cell-based, human. The settings on record: 120 hours. The method, then:
as §1, §2

Assay [7] deals with SKOV3 (Ovary) tumor cells. In words: alamarBlue growth inhibition, SKOV3. Type of assay: cell-based, human. The conditions noted are these: 120 hours. How it is done:
as §1, §2

Assay [8] relates to A431 (Skin) tumor cells. In words: alamarBlue growth inhibition, A431. It is filed as cell-based, human. The conditions noted are these: 120 hours. How it is done:
as §1, §2

In assay [9] the test system is TSH/HT1080 cells. The experiment in a line: alamarBlue cytotoxicity, HT1080 expressing high GFP-TS. Type of assay: cell-based, human. The settings on record: second line printed TSL/HT1080, TS Level 702%. How it is done:
Cell lines and transfection. HT1080 cells were grown in PRM11640 medium supplemented with 10% fetal calf serum, and transfected with GFP-TS expression vector. 48 hours after, transfection cells were tripsinized and replated in culture medium containing 750 μg/ml G418. After selection with G418 for two weeks, surviving cells were sorted based upon fluorescence expression. One clone with higher fluorescence expression (named as TSH/HT1080) and one clone with lower fluorescence expression (named as TSL/HT1080) were selected and expanded into cells lines. The stable HT1080 cells transfected with pEGFP-C3 were used as control.
Construction of GFP-TS expression vector. […] The cDNA was cloned into HindIII and KpnI sites of mammalian expression vector pEGFP-C3 (Clontech Laboratories. Inc., Palo Alto, Calif.), in-frame with GFP sequence. The cDNA insert was confirmed by DNA sequencing.
Growth Inhibition Studies. Cells growing exponentially were transferred to 384-well flat bottom tissue culture plates. All cell types were plated at a density of 500 cells per well in 25 μL of complete medium (RPMI 1640+10% fetal bovine serum+antibiotics/antimycotics). […] After 4 hours incubation at 37° C., fluorescence was monitored at 535 nm excitation and 595 nm emission.
as §2

Assay [10] concerns MCF7 TDX (Tomudex-resistant MCF7 breast cancer cells). In words: alamarBlue cytotoxicity, MCF7 TDX. Type of assay: cell-based, human. How it is done:
as §1, §2
(§3) Reversal of Resistance. The origin and characteristics of the human breast cancer MCF7 TDX cell line have been previously described (Drake, et al. (1996)). Briefly, MCF-7 breast cancer cells were selected in vitro for resistance to Tomudex by continuous exposure to stepwise increases in TDX concentrations up to 2.0 μM. […] After a dramatic initial cell killing effect, resistant colonies emerged, and vigorously growing monolayers were formed. TS protein level and IC50 for 5-FU, TDX, and NB1011 were determined for the resultant MCF7 TDX/1011 cell line as described in above by western blot and the alamarBlue cytotoxicity assay, respectively.

Assay [11] concerns MCF7 TDX/1011 cells (MCF7 TDX selected for resistance to NB1011). The experiment in a line: alamarBlue cytotoxicity, MCF7 TDX/1011. It is filed as cell-based, human. How it is done: as §1, §2, §3
In assay [12] the test system is H630 colon cancer cells. The experiment in a line: alamarBlue cytotoxicity, H630 parental. Type of assay: cell-based, human. The settings on record: Drug Selection None, read-out: NB1011-IC50. How it is done: as §1, §2
(§4) Cells were grown and characterized as described above. TS expression level is relative to CCD18co, a normal colon epithelial cell line. Tritium release is background substracted as described in Methods. ND=Not detectable above background.

Assay [13] has as its system H630 colon cancer cells, TDX selection. In words: alamarBlue cytotoxicity, H630 TDX-selected. The settings on record: Drug Selection TDX, read-out: NB1011-IC50. It is filed as cell-based, human. How it is done:
as §1, §2, §4

The test system of assay [14] is H630R10 (5FU Resistant) human colon carcinoma. In words: H630-10 5-FU resistant colon carcinoma xenografts in athymic mice. The settings on record: 1.25, 2.5, 3.5 mg daily × 5 days, IP or IT/peritumoral; from Day 6 to Day 25.
Procedure: Tumor measurements began on the first day of treatment (Day 1).
Following cell expansion ex-vivo H630-10 were injected subcutaneously (S.Q.) at 1.5×10^7 cells/tumor in the mid-back region of 4-6 week old, female, CD-1 (nu/nu), athymic mice (Charles River Laboratories, Wilmington, Mass.). Tumor volumes, calculated as the product of length, width, and depth, were monitored twice weekly by serial micrometer measurements by a single observer. Six animals were randomly assigned to each treatment group and statistical tests were performed (single-factor ANOVA) to assure uniformity in starting tumor volumes between treatment and control groups at the beginning of the experiment. […] To assure accurate dosing, drug doses were individualized based upon animal weights determined immediately prior to each injection. […] Differences in day 25 xenograft volumes between groups were analyzed by single-factor ANOVA of the log transformed tumor volume data.

pIC50: −log10 of the molar value. Like-named read-outs stand apart in the source and are kept apart here.

For the substance “5-(2-Bromovinyl)-2′-deoxyuridine phenyl N-methoxy-L-alaninyl phosphoramidate [NB1011]”, the pIC50 was 3.56 in assay [1]; 3.35 in assay [2]; 3.98 in assay [3]; 3.55 in assay [4]; 3.44 in assay [5]; 3.76 in [6]. For the same substance, the pIC50 in [7] was 3.32; in assay [8], 3.58; in assay [9] it was 6.10; in assay [10] (MCF7 Breast cancer, Drug Selection TDX, read-out: NB1011-IC50), 5.55; in [10] (MCF7 TDX, alamarBlue, read-out: IC50), 5.70; in assay [11] it was 3.62. Moreover, the pIC50 in [12] was 3.38; in assay [13], 5.64. The “tumor growth (xenograft volume)” value in assay [14] was “significant difference between the NB1011 groups vs. either the 5FU or excipient controls”.
